According to patent US10800816B2 (Baxalta GmbH, priority 2012, dated 2020):
*1 amine or outer side, *2 acyl side, *3 side chain or, on linkers, in order; H or OH if unused. Where a SMILES comes first, the peptide text is derived from it. Side-chain parts run from the residue outwards. [ ]: non-standard residue; d: D form. The star is where a group is joined. TTDA(Palmitoyl) = CCCCCCCCCCCCCCCC(=O)NCCCOCCOCCOCCCN*; Succinimide(1-Et,3-yl) = CCN1C(=O)CC(*)C1=O; Suc = O=C(CCC(=O)[*:2])[*:1]; Tle = CC(C)(C)[C@H](N)C(=O)O; Hexanoyl = CCCCCC(=O)*; Aib = CC(C)(N)C(=O)O; Acm = CC(=O)NC*

Legend:
TFPI = experiment: IC50 ELISA | Mean IC50 [nM]
Description: Table printed on a drawing sheet, FIGURE 78Z
Head of the field: IC50 ELISA | Mean IC50 [nM]
First copying reader's note: Continued table: the first body row (45.67) belongs to a compound on the preceding sheet, the last row probably continues on the next sheet, and cells with several values list single replicates.

24 h Mouse Plasma Stability | Mean Remaining [%] (FIGURE 78Z)	Molecule	24 h Human Plasma Stability | Mean Remaining [%] (FIGURE 78M)	24 h Human Plasma Stability | Mean Remaining [%] (FIGURE 78Z)	IC50 (TFPI) [nM]
	CCN1C(=O)CC(SC[C@H](NC(=O)[C@H](CC(C)C)NC(=O)[C@H](CCCCN)NC(=O)[C@H](C)NC(=O)C(C)(C)NC(=O)[C@H](CC(C)C)NC(=O)[C@H](CCCNC(=N)N)NC(=O)[C@H](CCC(=O)O)NC(=O)[C@H](Cc2ccccc2)NC(=O)[C@H](Cc2ccc(O)cc2)NC(=O)CNC(=O)[C@H](CC(=O)O)NC(=O)C(C)(C)NC(=O)[C@H](Cc2c[nH]cn2)NC(=O)[C@@H](NC(=O)[C@H](CC(N)=O)NC(=O)[C@H]2CCCN2C(=O)[C@H](CCCCN)NC(=O)[C@H](CO)NC(=O)[C@H](CCC(N)=O)NC(=O)[C@H](Cc2ccccc2)NC(C)=O)C(C)C)C(N)=O)C1=O (stereo partly shown) [JBT00002385, Ac-FQSKpNVH-Aib-DGYFERL-Aib-AKLC(NEM)-NH2]	51.50		
	CCCCCC(=O)N[C@@H](Cc1ccccc1)C(=O)N[C@@H](CCC(N)=O)C(=O)N[C@@H](CO)C(=O)N[C@@H](CCCCN)C(=O)N1CCC[C@@H]1C(=O)N[C@@H](CSCNC(C)=O)C(=O)N[C@H](C(=O)N[C@@H](Cc1c[nH]cn1)C(=O)N[C@H](C(=O)N[C@@H](CC(=O)O)C(=O)N[C@H](C)C(=O)N[C@@H](Cc1ccc(O)cc1)C(=O)N[C@@H](Cc1ccccc1)C(=O)N[C@@H](CCC(=O)O)C(=O)N[C@@H](CCCNC(=N)N)C(=O)N[C@@H](CC(C)C)C(=O)NC(C)(C)C(=O)N[C@@H](C)C(=O)N[C@@H](CCCCN)C(=O)N[C@@H](CC(C)C)C(=O)N[C@@H](CSC1CC(=O)N(CC)C1=O)C(N)=O)C(C)(C)C)C(C)C (stereo partly shown) [JBT00002537, Hex-FQSKp-Cys(Acm)-VH-Tle-DaYFERL-Aib-AKLC(NEM)- NH2] (Hexanoyl-FQSK[dP]C(Acm)VH[Tle]D[dA]YFERL[Aib]AKLC(Succinimide(1-Et,3-yl))-NH2)		106.65	7.13
52.65	(Hex-FQSKp-Cys(Acm)-VH-Tle-DaYFERL-Aib-AKLC- NH2)2-M2TriO [JBT00002533]		185.13	
69.87	Hex-FQSKp-Cys(Acm)-VH-Tle-DaYFERL-Aib-AKLC(ME- 400MA)-NH2 [JBT00002534]		59.83	

Molecule	24 h Mouse Plasma Stability | Mean Remaining [%] (FIGURE 78Z)	24 h Human Plasma Stability | Mean Remaining [%] (FIGURE 78M)	24 h Human Plasma Stability | Mean Remaining [%] (FIGURE 78Z)	IC50 (TFPI) [nM]
CCCCCCCCCCCCCCCC(=O)NCCCOCCOCCOCCCNC(=O)CCC(=O)NCCCC[C@H](NC(=O)[C@H](CC(C)C)NC(=O)[C@H](CCCCN)NC(=O)[C@H](C)NC(=O)C(C)(C)NC(=O)[C@H](CC(C)C)NC(=O)[C@H](CCCNC(=N)N)NC(=O)[C@H](CCC(=O)O)NC(=O)[C@H](Cc1ccccc1)NC(=O)[C@H](Cc1ccc(O)cc1)NC(=O)[C@@H](C)NC(=O)[C@H](CC(=O)O)NC(=O)[C@@H](NC(=O)[C@H](Cc1c[nH]cn1)NC(=O)[C@@H](NC(=O)[C@H](CSCNC(C)=O)NC(=O)[C@H]1CCCN1C(=O)[C@H](CCCCN)NC(=O)[C@H](CO)NC(=O)[C@H](CCC(N)=O)NC(=O)[C@H](Cc1ccccc1)NC(=O)CCCCC)C(C)C)C(C)(C)C)C(N)=O [JBT00002532, Hex-FQSKp-Cys(Acm)-VH-Tle-DaYFERL-Aib-AKLK(Ttds- Palm)--NH2] (Hexanoyl-FQSK[dP]C(Acm)VH[Tle]D[dA]YFERL[Aib]AKLK([Suc-TTDA(Palmitoyl)])-NH2)	67.50		107.70	36.7
